“Also recorded” adds a separate entry of the source.
Legend:
[1] = system: human-derived dental pulp stem cells; test: Extracellular matrix calcification by Alizarin Red S staining during bone differentiation; assay type: cell-based; conditions: for calcification (Alizarin Red S staining): 0, 1, 5 and 1.0 μM/ml in bone differentiation induction medium
Procedure: Human-derived dental pulp stem cells (4×10^5 cells/ml) were cultured in Miltenyi Stem MACS MSC Expansion Media Kit XF medium containing 100 μg/ml streptomycin and 100 μg/ml penicillin, followed by culturing in bone differentiation induction medium (10% fetal bovine serum, […] dexamethasone, 10 mM β-glycerophosphate, and 50 mM ascorbic acid). Beck 35 (LPAR2 inhibitor) and LPA were added to the bone differentiation induction medium at various concentrations (0, 1, 5 and 1.0 μM/ml). […] In order to quantify the degree of staining, the absorbance was measured at 562 nm after dissolving in 10% (WN) cetylpyridinium chloride and 10 mM sodium phosphate (pH 7.0) solution.
Human-derived dental pulp stem cells (4×10^5 cells/ml) were cultured in Miltenyi Stem MACS MSC Expansion Media Kit XF medium containing 100 μg/ml streptomycin and 100 μg/ml penicillin, and differentiation was induced for 14 days by changing to the bone differentiation induction medium. To the bone differentiation induction medium, RP10-83, an agonist of LPAR2 and H2L5186303, an antagonist of LPAR2 were added at various concentrations (0, 1, and 10 μM/ml). The cells in which bone differentiation was induced were washed twice with PBS, fixed with 70% ethanol at 4° C. for 1 hour, stained with 40 mM Alizarin Red S (pH 4.2, Sigma Co.) solution for 10 minutes, and then washed with distilled water sufficiently. In order to quantify the degree of staining, the absorbance was measured at 562 nm after dissolving in a 10% (WN) cetylpyridinium chloride and 10 mM sodium phosphate (pH 7.0) solution.
Human-derived dental pulp stem cells (4×10^5 cells/ml) were cultured in a growth medium without antibiotics. 50 nM of LPAR2 si-RNA was transfected using jetPRIME (Polyplus Transfection) according to the manufacturers protocol. As a control, non-targeting siRNA (SEQ ID NO: 1: […]) was transfected. The differentiation of the cells was induced for 7 days after changing to bone differentiation induction medium. […]

[2] = system: human-derived dental pulp stem cells; test: Cell viability measurement (MTT method); assay type: cell-based; conditions: 24 hours; for proliferation of human-derived dental pulp stem cells (cell viability, MTT): expansion medium, vs control
Procedure: Cell viability measurement was evaluated by the 3-(4,5-dimethylthiazol-2-yl)-2,5-diphenyl-2H-tetrazolium bromide (MTT) method. Human-derived dental pulp stem cells were coated with 0.2% gelatin one day before culture. On the day of incubation, 0.2% gelatin was removed from the 48-well plate and washed once with PBS. In 48-well plates, human-derived dental pulp stem cells (4×10^5 cells/ml) were cultured in Miltenyi Stem MACS MSC Expansion Media Kit XF medium containing 100 μg/ml streptomycin and 100 μg/ml penicillin. Beck 35 was evaluated at various concentrations (0, 0.1, 1 and 1.0 μg/ml) for 24 hours at 37° C. in an atmosphere of 5% CO2 and 95% humidity. Then, the cells were incubated with 0.5 mg/ml MTT (SIGMA, USA) for 3 hours, and the reaction was stopped by adding dimethyl sulfoxide (DMSO, JUNSEL, Japan). Results were obtained at 560 nm using an ELISA reader. The cell viability of the control cells was used as a 100% control value.
In addition, human-derived dental pulp stem cells were cultured in bone differentiation inducing medium (10% fetal bovine serum, […] dexamethasone, 10 mM β-glycerophosphate and 50 mM ascorbic acid) for 24 hours to induce the differentiation and various concentrations (1, 5 and 1.0 μM/ml) of Beck 35 were treated during differentiation.

[3] = system: human-derived dental pulp stem cells; test: Electron microscope analysis after bone differentiation; assay type: cell-based; conditions: bone differentiation medium with vs without Beck 35
Procedure: As in Example 2-2, human-derived dental pulp stem cells were cultured in a culture medium for inducing bone differentiation with or without Beck 35, an inhibitor of LPAR2, to induce bone differentiation, and then observed by an electron microscope.

[4] = system: human-derived dental pulp stem cells; test: Real-time PCR analysis of differentiation genes; assay type: cell-based; conditions: 1 μM once every 3 days, 7 days in bone differentiation medium
Procedure: As in Example 2-2, human-derived dental pulp stem cells were differentiated for 7 days, 14 days and 21 days in a bone differentiation induction culture medium. Beck 35 was added to the bone differentiation medium at a concentration of 1 μM once every 3 days to differentiate for a week. Those maintained with the human-derived dental pulp stem cells, induced differentiation for 7 days, 14 days and 21 days with bone differentiation medium, and induced differentiation for 7 days in bone differentiation medium containing Beck 35 was used to isolate total RNA with Trisure (Bioline, UK) and reverse transcription to cDNA was performed using HelixCript™ Thermo Reverse Transcriptase (NanoHelix, Korea, Daejeon, Korea). The synthesized cDNA was performed using the primers of Table 1 and Power SYBR Green PCR Master Mix. The data analysis was determined using the delta Ct method.

[5] = system: exposed pulp cavity of mouse molars; test: Pulp cavity exposure animal model (H&E, MTC, micro-CT, immunohistochemistry); assay type: in vivo
Procedure: (§1) After anesthesia is performed by administering intraperitoneally Zoletil (Virbac, Carros, France) and Rompun (Bayer, Berlin, Germany), which are anesthetic inducing agents according to the weight, an experiment was conducted to expose the pulp cavity for the maxillary right first molars. To confirm the change in gene expression, an experiment was conducted on the developing 14th day pregnant embryo. ICR-based female mice whose pregnancy was confirmed were sacrificed in the morning of the 14th day after pregnancy, and then embryos were obtained and the tooth germ of the lower jaw was finely dissected under a stereoscopic microscope, and the tooth germ tissue was placed on the lid of a 35 mm diameter Petri dish for experimentation together with the culture solution and cultured in a 5% carbon dioxide incubator at 37° C. for 24 hours with or without Beck 35 drug administration.
In order to prepare tissue sections, mice were sacrificed after a certain experimental period in the experimental group and the control group, fixed in 4% paraformaldehyde, washed with phosphate buffer solution, and demineralized in 0.1 M EDTA chelate solution. Demineralization proceeded for 4 weeks, and after demineralization, it was embedded in wax, cut to a thickness of 7 micrometers, and smeared on a glass slide to perform conventional hematoxylin and eosin staining.
MTC staining was performed to confirm the synthesis of collagen protein and formation of mineralized tissue. After staining the nucleus with hematoxylin for the tissue on the glass slide produced through the normal tissue sectioning process and if the entire tissue is stained with a mixed dyeing solution designed to perform cytoplasmic staining with biebrich scarlet and muscle fibers staining with acid fuchsin, all of collagen fibers, muscle fibers and cytoplasm can be observed by staining red.
Microcomputerized tomography was performed to confirm the hard tissue regenerated by the drug. The lower jaw tissue fixed in 4% paraformaldehyde was observed using Skyscan1272 (Bruker, Kontich, Belgium), and 2 micrometers pixels were photographed at 4904×3280 resolution for the entire 360 degree, and the image was reconstructed in 3D with a data viewer and then the degree of hard tissue formation was objectively analyzed by analyzing with the CTAn (Bruker) program.
While observing the oral cavity of anesthetized mice under a stereoscopic microscope, a pulp cavity exposure experiment was performed on the upper right first molar, and the left upper first molar was used as a untreated control. While observing with a stereoscopic microscope, using a round burr having 0.6 mm diameter connected to a high-speed handpiece, the enamel and dentin was exposed to be perpendicular to the occlusal surface, and when necessary, water was sprayed to minimize tissue damage. Afterwards, the Beck 35 drug was mounted on Pluronic F127 and delivered to the exposed pulp cavity. Only Pluronic F127 was delivered to confirm as a control. After the delivery of the Beck 35 drug to the pulp cavity, the doubly exposed pulp cavity was covered with Dycal (Dentsply Caulk, Milford, DE) and a […] composite resin. Thereafter, on the 3rd, 5th and 42nd days, the changes were confirmed by histological and microcomputed tomography techniques.
To confirm the expression of the protein, the expression pattern of NESTIN, a protein specific for odontoblasts, was confirmed by immunohistochemistry using tissue sections from the control and treatment groups. The expression of the protein was confirmed based on the antigen-antibody reaction, and the positive reaction of the protein was confirmed as brown with 3,3′-diaminobenzidine.

tooth germ mesenchyme = test: Real-time PCR analysis of in vitro cultured tooth germ mesenchyme; assay type: cell-based, mouse; conditions: 24 hours, 5 μM, vs control group
Procedure: as §1, with “Experimental animals were carried out using mouse ICR-based male 8 week-old mice. After” for “After”
In order to confirm the change in gene expression by Beck 35 drugs, in vitro culture was performed by microdissecting the tooth germ at the 14th day of the embryonic period, and the group treated with the drug for 24 hours was set as the experimental group, and the untreated tissue was set as the control group, and changes in gene expression were confirmed by real-time PCR analysis. After RNA was obtained from the cultured tissue, the first strand cDNA was synthesized and the expression level was confirmed by real-time PCR for genes known to be important for dentin formation until now.

[6] = system: dental papilla mesenchyme; test: Real-time PCR analysis of in vitro cultured dental papilla mesenchyme; assay type: cell-based, mouse; conditions: 24 hours, vs control group
Procedure: as §1, with “Experimental animals were carried out using mouse ICR-based male 8 week-old mice. After” for “After”
In order to confirm the change in gene expression by Beck 35 drugs, in vitro culture was performed by microdissecting the tooth germ at the 14th day of the embryonic period, and the group treated with the drug for 24 hours was set as the experimental group, and the untreated tissue was set as the control group, and changes in gene expression were confirmed by real-time PCR analysis. […]

[7] = after 3 and 5 days, vs control group
[8] = after 42 days, vs control group

## lysophosphatidic acid [LPA]
[1]
  calcification (Alizarin Red S staining): did not undergo the calcification

## O=C(O)/C=C\C(=O)Nc1ccc(Oc2cccc(Oc3ccc(NC(=O)/C=C\C(=O)O)cc3)c2)cc1 [H2L5186303]
[1]; 0, 1, and 10 μM/ml, differentiation induced for 14 days
  bone differentiation (Alizarin Red S staining): promoted bone differentiation

## Cc1csc2c(N[C@@H](C)CN3CCN(S(=O)(=O)c4ccc(Cl)c(Cl)c4)CC3)ncnc12 [Beck 35]
[2]; 10 μM/ml
  proliferation of human-derived dental pulp stem cells (cell viability, MTT): promoted the proliferation
[2]; 0.1 and 1 μM/ml
  proliferation of human-derived dental pulp stem cells (cell viability, MTT): not different from the control
[2]; 1, 5 and 1.0 μM/ml, bone differentiation inducing medium
  proliferation of human dental pulp stem cells during differentiation: inhibited the proliferation
[1]
  calcification (Alizarin Red S staining): promoted the calcification in a concentration-dependent manner
[3]
  cell morphology by electron microscope: relatively long-shaped cells
[4]
  expression level of DMP-1 (dentin matrix protein 1): Increased
  expression level of DSPP (dentin sialophosphoprotein): Increased
  expression level of Runx2 (runt-related transcription factor 2): Increased
  expression level of osteopontin: Increased
[5]; 3 and 5 days later
  blood vessel distribution (MTC staining): same blood vessel distribution as the HE staining result
  number of cells in which the inflammatory cells and the nucleus were thickly condensed (MTC staining): small
[5]; 42 days after pulp cavity exposure, vs control group
  dentin bridge formation (micro-CT): dentin bridge was formed; also recorded: perfect dentin bridge was regenerated
[5]; Beck 35 5 μM in exposed pulp cavity, maxillary molar of 8-week-old B6 mice
  dentin regeneration, morphological: perfectly formed dentin bridge
[5]; [7]
  NESTIN expression in pulp cavity periphery (immunohistochemistry): more positive reactions
  RUNX2 expression in pulp cavity periphery (immunohistochemistry): more positive reactions
  blood vessels in pulp cavity (H&E): more tissues were observed as blood vessels
  staining of cell nuclei in the pulp cavity (H&E): stained lighter than the control group
[5]; [8]
  formation of calcified dentin bridge (MTC staining): formation of calcified dentin bridge was confirmed
  formation of dentin bridge (H&E): formation of dentin bridge was clearly observed
[5]; after treating exposed pulp cavity
  new collagen fibers in pulp cavity (HE and MTC staining): new collagen fibers seen as pulp cavity internal tissue were confirmed
[5]; treatment group vs control group
  number of inflammatory cells (H&E): in the control group, the number of inflammatory cells was observed higher than that of the treatment group
[5]; vs control group (dispersed and pale dyed)
  staining of enamel matrix: dyed dark red
Tooth germ mesenchyme
  expression of Axin2 (Wnt signaling): reduced
  expression of Bmp2: reduced
  expression of Bmp4: reduced
  expression of Bmp6: reduced
  expression of Bmp7: reduced
  expression of Lef1 (Wnt signaling): reduced
  expression of beta-Catenin (Wnt signaling): reduced
[6]
  expression of Bmp6: increased
  overall gene expression: overall gene expression increased

From patent publication US12090166B2, “Pharmaceutical composition for preventing or treating dentin-dental pulp disease or periodontal disease, containing LPAR2 inhibitor” (PUSAN NATIONAL UNIVERSITY INDUSTRY-UNIVERSITY COOPERATION …, priority 2018, dated 2024)
